Assay results as given in patent US20220281848A1, “PYRAZOLE-SUBSTITUTED PYRROLIDINONES AS HERBICIDES” (FMC Corporation, priority 2019, published 2022).

Legend:
[1] = system: wheat; assay: Test D post-emergence, wheat seed treated with a herbicide safener; assay type: in vivo; conditions: "Cereals" Postemergent
Method in brief: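 Seeds treated with herbicide safener; sown in soil; glasshouse, 16 h light, 65% humidity. Sprayed day 1 (pre) or ~day 12 (post). Spray in 0.2% v/v adjuvant. Scored 0–100 damage: 20 DAA pre, 15 d post.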

[2] = system: plants; assay: Test D post-emergence, other plants of Tables D2 and D4; assay type: in vivo; conditions: for damage to plant (100=total damage to plant; 0=no damage to plant), ABUTH / damage to plant (100=total damage to plant; 0=no damage to plant), AMARE / damage to plant (100=total damage to plant; 0=no damage to plant), BIDPI / damage to plant (100=total damage to plant; 0=no damage to plant), BRAPL / damage to plant (100=total damage to plant; 0=no damage to plant), CYPES / damage to plant (100=total damage to plant; 0=no damage to plant), DIGSA / damage to plant (100=total damage to plant; 0=no damage to plant), ECHCG / damage to plant (100=total damage to plant; 0=no damage to plant), ELEIN / damage to plant (100=total damage to plant; 0=no damage to plant), EPHHL / damage to plant (100=total damage to plant; 0=no damage to plant), GLXMA / damage to plant (100=total damage to plant; 0=no damage to plant), IPOHE / damage to plant (100=total damage to plant; 0=no damage to plant), ORYSA / damage to plant (100=total damage to plant; 0=no damage to plant), PANMI / damage to plant (100=total damage to plant; 0=no damage to plant), SETFA / damage to plant (100=total damage to plant; 0=no damage to plant), SORVU: post-emergence
Method in brief: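 Damage was rated visually from 0 (none) to 100 (total), at 20 DAA for pre-emergence and 15 d for post-emergence. Plants grew from safener-treated seed in a glasshouse at 24/18° C. or 20/16° C. day/night, 65% humidity, watered twice daily.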

[3] = "Cereals" Postemergent, Rates 130, evaluated after 15 d
[4] = "Cereals" Postemergent, Rates 250, evaluated after 15 d
[5] = "Cereals" Postemergent, Rates 500, evaluated after 15 d

CN1CC(c2cc(C(F)(F)F)n(C)n2)C(C(=O)Nc2ccc(F)c(F)c2F)C1=O (racemic) [Compound 17]
TRZAW damage rating (100=total damage to plant; 0=no damage to plant) ([1]; Rates 130, evaluated after 15 d): 0
TRZAW damage rating (100=total damage to plant; 0=no damage to plant) ([1]; Rates 250, evaluated after 15 d): 40
TRZAW damage rating (100=total damage to plant; 0=no damage to plant) ([1]; Rates 500, evaluated after 15 d): 70
ALOMY damage rating (100=total damage to plant; 0=no damage to plant) [2, 3]: 30
ALOMY damage rating (100=total damage to plant; 0=no damage to plant) [2, 4]: 50
ALOMY damage rating (100=total damage to plant; 0=no damage to plant) [2, 5]: 70
AVEFA damage rating (100=total damage to plant; 0=no damage to plant) [2, 3]: 0
AVEFA damage rating (100=total damage to plant; 0=no damage to plant) [2, 4]: 30
AVEFA damage rating (100=total damage to plant; 0=no damage to plant) [2, 5]: 60
BEAVA damage rating (100=total damage to plant; 0=no damage to plant) [2, 3]: 10
BEAVA damage rating (100=total damage to plant; 0=no damage to plant) [2, 4]: 20
BEAVA damage rating (100=total damage to plant; 0=no damage to plant) [2, 5]: 20
BROTE damage rating (100=total damage to plant; 0=no damage to plant) [2, 3]: 0
BROTE damage rating (100=total damage to plant; 0=no damage to plant) [2, 4]: 10
BROTE damage rating (100=total damage to plant; 0=no damage to plant) [2, 5]: 20
BRSNN damage rating (100=total damage to plant; 0=no damage to plant) [2, 3]: 0
BRSNN damage rating (100=total damage to plant; 0=no damage to plant) [2, 4]: 20
BRSNN damage rating (100=total damage to plant; 0=no damage to plant) [2, 5]: 20
CHEAL damage rating (100=total damage to plant; 0=no damage to plant) [2, 3]: 0
CHEAL damage rating (100=total damage to plant; 0=no damage to plant) [2, 4]: 60
CHEAL damage rating (100=total damage to plant; 0=no damage to plant) [2, 5]: 50
GALAP damage rating (100=total damage to plant; 0=no damage to plant) [2, 3]: 0
GALAP damage rating (100=total damage to plant; 0=no damage to plant) [2, 4]: 40
GALAP damage rating (100=total damage to plant; 0=no damage to plant) [2, 5]: 30
HORVW damage rating (100=total damage to plant; 0=no damage to plant) [2, 3]: 10
HORVW damage rating (100=total damage to plant; 0=no damage to plant) [2, 4]: 40
HORVW damage rating (100=total damage to plant; 0=no damage to plant) [2, 5]: 80
KCHSC damage rating (100=total damage to plant; 0=no damage to plant) [2, 3]: 0
KCHSC damage rating (100=total damage to plant; 0=no damage to plant) [2, 4]: 0
KCHSC damage rating (100=total damage to plant; 0=no damage to plant) [2, 5]: 20
LOLPE damage rating (100=total damage to plant; 0=no damage to plant) [2, 3]: 0
LOLPE damage rating (100=total damage to plant; 0=no damage to plant) [2, 4]: 30
LOLPE damage rating (100=total damage to plant; 0=no damage to plant) [2, 5]: 60
POAAN damage rating (100=total damage to plant; 0=no damage to plant) [2, 3]: 60
POAAN damage rating (100=total damage to plant; 0=no damage to plant) [2, 4]: 80
POAAN damage rating (100=total damage to plant; 0=no damage to plant) [2, 5]: 90
POLCO damage rating (100=total damage to plant; 0=no damage to plant) [2, 3]: 0
POLCO damage rating (100=total damage to plant; 0=no damage to plant) [2, 4]: 0
POLCO damage rating (100=total damage to plant; 0=no damage to plant) [2, 5]: 10
SINAR damage rating (100=total damage to plant; 0=no damage to plant) ([2]; SINAR, "Cereals" Postemergent, Rates 500, evaluated after 15 d): 60
STEME damage rating (100=total damage to plant; 0=no damage to plant) [2, 3]: 0
STEME damage rating (100=total damage to plant; 0=no damage to plant) [2, 4]: 0
STEME damage rating (100=total damage to plant; 0=no damage to plant) [2, 5]: 30
VERPE damage rating (100=total damage to plant; 0=no damage to plant) [2, 3]: 30
VERPE damage rating (100=total damage to plant; 0=no damage to plant) [2, 4]: 70
VERPE damage rating (100=total damage to plant; 0=no damage to plant) [2, 5]: 60
damage to plant (100=total damage to plant; 0=no damage to plant), ABUTH ([2]; rate 130, evaluated after 15 d): 0
damage to plant (100=total damage to plant; 0=no damage to plant), ABUTH ([2]; rate 250, evaluated after 15 d): 0
damage to plant (100=total damage to plant; 0=no damage to plant), ABUTH ([2]; rate 500, evaluated after 15 d): 20
damage to plant (100=total damage to plant; 0=no damage to plant), AMARE ([2]; rate 250, evaluated after 15 d): 20
damage to plant (100=total damage to plant; 0=no damage to plant), AMARE ([2]; rate 500, evaluated after 15 d): 40
damage to plant (100=total damage to plant; 0=no damage to plant), BIDPI ([2]; rate 130, evaluated after 15 d): 0
damage to plant (100=total damage to plant; 0=no damage to plant), BIDPI ([2]; rate 250, evaluated after 15 d): 0
damage to plant (100=total damage to plant; 0=no damage to plant), BIDPI ([2]; rate 500, evaluated after 15 d): 0
damage to plant (100=total damage to plant; 0=no damage to plant), BRAPL ([2]; rate 130, evaluated after 15 d): 70
damage to plant (100=total damage to plant; 0=no damage to plant), BRAPL ([2]; rate 250, evaluated after 15 d): 80
damage to plant (100=total damage to plant; 0=no damage to plant), BRAPL ([2]; rate 500, evaluated after 15 d): 80
damage to plant (100=total damage to plant; 0=no damage to plant), CYPES ([2]; rate 130, evaluated after 15 d): 0
damage to plant (100=total damage to plant; 0=no damage to plant), CYPES ([2]; rate 250, evaluated after 15 d): 0
damage to plant (100=total damage to plant; 0=no damage to plant), CYPES ([2]; rate 500, evaluated after 15 d): 10
damage to plant (100=total damage to plant; 0=no damage to plant), DIGSA ([2]; rate 130, evaluated after 15 d): 70
damage to plant (100=total damage to plant; 0=no damage to plant), DIGSA ([2]; rate 250, evaluated after 15 d): 80
damage to plant (100=total damage to plant; 0=no damage to plant), DIGSA ([2]; rate 500, evaluated after 15 d): 80
damage to plant (100=total damage to plant; 0=no damage to plant), ECHCG ([2]; rate 130, evaluated after 15 d): 80
damage to plant (100=total damage to plant; 0=no damage to plant), ECHCG ([2]; rate 250, evaluated after 15 d): 80
damage to plant (100=total damage to plant; 0=no damage to plant), ECHCG ([2]; rate 500, evaluated after 15 d): 80
damage to plant (100=total damage to plant; 0=no damage to plant), ELEIN ([2]; rate 130, evaluated after 15 d): 0
damage to plant (100=total damage to plant; 0=no damage to plant), ELEIN ([2]; rate 250, evaluated after 15 d): 10
damage to plant (100=total damage to plant; 0=no damage to plant), ELEIN ([2]; rate 500, evaluated after 15 d): 20
damage to plant (100=total damage to plant; 0=no damage to plant), EPHHL ([2]; rate 130, evaluated after 15 d): 10
damage to plant (100=total damage to plant; 0=no damage to plant), EPHHL ([2]; rate 250, evaluated after 15 d): 20
damage to plant (100=total damage to plant; 0=no damage to plant), EPHHL ([2]; rate 500, evaluated after 15 d): 30
damage to plant (100=total damage to plant; 0=no damage to plant), GLXMA ([2]; rate 130, evaluated after 15 d): 0
damage to plant (100=total damage to plant; 0=no damage to plant), GLXMA ([2]; rate 250, evaluated after 15 d): 0
damage to plant (100=total damage to plant; 0=no damage to plant), GLXMA ([2]; rate 500, evaluated after 15 d): 10
damage to plant (100=total damage to plant; 0=no damage to plant), IPOHE ([2]; rate 130, evaluated after 15 d): 0
damage to plant (100=total damage to plant; 0=no damage to plant), IPOHE ([2]; rate 250, evaluated after 15 d): 0
damage to plant (100=total damage to plant; 0=no damage to plant), IPOHE ([2]; rate 500, evaluated after 15 d): 10
damage to plant (100=total damage to plant; 0=no damage to plant), ORYSA ([2]; rate 130, evaluated after 15 d): 0
damage to plant (100=total damage to plant; 0=no damage to plant), ORYSA ([2]; rate 250, evaluated after 15 d): 0
damage to plant (100=total damage to plant; 0=no damage to plant), ORYSA ([2]; rate 500, evaluated after 15 d): 10
damage to plant (100=total damage to plant; 0=no damage to plant), PANMI ([2]; rate 130, evaluated after 15 d): 0
damage to plant (100=total damage to plant; 0=no damage to plant), PANMI ([2]; rate 250, evaluated after 15 d): 0
damage to plant (100=total damage to plant; 0=no damage to plant), PANMI ([2]; rate 500, evaluated after 15 d): 0
damage to plant (100=total damage to plant; 0=no damage to plant), SETFA ([2]; rate 130, evaluated after 15 d): 60
damage to plant (100=total damage to plant; 0=no damage to plant), SETFA ([2]; rate 250, evaluated after 15 d): 70
damage to plant (100=total damage to plant; 0=no damage to plant), SETFA ([2]; rate 500, evaluated after 15 d): 70
damage to plant (100=total damage to plant; 0=no damage to plant), SORVU ([2]; rate 130, evaluated after 15 d): 0
damage to plant (100=total damage to plant; 0=no damage to plant), SORVU ([2]; rate 250, evaluated after 15 d): 0
damage to plant (100=total damage to plant; 0=no damage to plant), SORVU ([2]; rate 500, evaluated after 15 d): 0
